Measurements as given in PMC5958115, “A novel small molecule chaperone of rod opsin and its potential therapy for retinal degeneration” (Nature Communications, 2018).

What was measured:
[1] = test system: S. typhimurium TA1535, TA97a, TA98, TA100 and E. coli WP2; assay: Micro Ames bacterial mutation test, five strains, with or without S9; settings: 0.075-250 µg per well
Description: To determine the potential genotoxicity of YC-001, a Micro Ames test was performed by the Charles River Laboratories, Inc. The S9 microsomal fraction was obtained from Moltox Molecular Toxicology, Inc. (Boone, NC, USA). A premixture was prepared including 25 µL of S9 mix (10% v/v S9 fraction in 8 mM MgCl2, 33 mM KCl, 100 mM sodium phosphate buffer, pH 7.4, +S9) or phosphate buffer (0.2 M sodium phosphate, pH 7.4, no S9), 5 µL of bacterial culture (>1000 × 10^6 bacteria mL^−1) and 100 µL of molten top agar supplemented with 0.05 mM biotin and minimal histidine (0.05 mM) and minimal tryptophan (0.05 mM). The 24-well plates were prepared by adding 1.3 mL of minimal bottom agar (1.3% agar, Vogel-Bonner medium E and 0.25% glucose) to each well. A 10 µL aliquot of YC-001 working solution/negative/positive control was added to each well followed by addition of 130 µL of the premixture. The plates kept on a leveled surface for 1 h while the top agar solidified, then were incubated at 37 °C for 72 h. After this period, plates were stored at 4 °C before revertant colony counts were manually recorded using an inverted microscope. […]

[2] = Quantification of YC-001 in mouse eye by HPLC; assay type: in vivo, C57BL/6 mouse
Description: To measure the amount of YC-001 in the eye following systemic delivery, YC-001 was administered to C57BL/6 mice by i.p. injection at a dose of 200 mg kg^−1 bw. Mice then were euthanized at 30 min, 3 h and 24 h after these injections, and their eyes were removed for analysis. Eyes from two mice under the same treatment were homogenized on ice in 1 mL of PBS:methanol (1:1 ratio). Four-mL of hexanes were then added to the homogenized sample, and the mixture was vortexed for 15 s. The mixture was centrifuged at 3,220×g for 15 min at 4 °C to separate the hexanes from the aqueous layer. From the top hexane layer, 3.5 mL was transferred to a glass vial. This sample was then dried in a Savant speed vacuum concentrator (Thermofisher, Waltham, Massachusetts, USA) and dissolved in 300 µL methanol. One hundred-µL of dissolved sample were injected into an HPLC system connected to an Agilent Sil column (5 μm, 4.6 × 250 mm; Agilent Technologies, Santa Clara, CA) for separation with 10% ethyl acetate in hexanes at a flow rate 1.4 mL min^−1. A chromatogram of absorption at 340 nm was then obtained. A YC-001 standard was subjected to the same procedures as the ocular samples and used to establish a retention time at 13.2 min. By comparing ocular samples to its standard curve of YC-001, the amount of YC-001 was then quantified in pmol per eye at different time points after its systemic administration. The identity of YC-001 in the peak fraction with a retention time of […] was confirmed by LC–MS using the same chromatography method as applied for HPLC.

[3] = Pharmacokinetics of YC-001 in mouse plasma; assay type: in vivo, C57BL/6 mice
Description: C57BL/6J mice ranging from 8 to 12 weeks of age were purchased from Jackson Labs. For administration, YC-001 was dissolved in DMSO at 160 mg mL^−1. To obtain the blood clearance curve for YC-001, each animal was treated by i.p. injection of YC-001 at 200 mg kg^−1 bw. After administration, blood was collected at 5, 10, 15, 20, 30, 45, 60, and 90 min from the orbital sinus and dropped into K2EDTA blood collection tubes (FisherScientific). Mice were anesthetized with a ketamine/xylazine cocktail two min before blood collection. The blood samples were then incubated at 4 °C for 2 h before centrifugation at 1800×g for 20 min to collect the plasma in the supernatant. Plasma was mixed with twice the volume of methanol and then stored at −80 °C. YC-001 was extracted from the samples (300 to 600 μL) with 0.6 mL chloroform. The chloroform fraction was collected, dried, and the extracted organic compounds were dissolved in 0.25 mL of methanol. One hundred µL of each sample was injected onto an Eclipse XDB-C18 column (4.6 × 150 mm, 5 µm) and YC-001 was detected and quantified as described in the section Metabolic stability of YC-001.

O=C1OCC(c2ccc(Cl)s2)=C1c1cccs1 [YC-001]
Ames test result [1]: negative | amount of YC-001 in eye ([2]; 0.5 h after i.p. 200 mg kg^−1 bw): About 70 pmol per eye | amount of YC-001 in eye ([2]; 3 h after i.p. 200 mg kg^−1 bw): 280 pmol per eye | amount of YC-001 in eye ([2]; 24 h after i.p. 200 mg kg^−1 bw): undetectable | k el ([3]; C57BL/6J, mouse, plasma, intraperitoneal, 200 mg kg^−1 bw, estimated from T1/2 and C0, read-out: elimination rate constant (Ke) (converted)): 0.000335 s⁻¹ | C0 ([3]; C57BL/6J, mouse, plasma, ip, i.p. 200 mg kg^−1 bw, read-out: initial plasma concentration (C0)): 7280 ng/mL | half-life ([3]; C57BL/6J, mouse, plasma, ip, i.p. 200 mg kg^−1 bw, read-out: plasma half-life (T1/2)): 34.5 min | clearance ([3]; estimated from T1/2 and C0): 0.552 L min^−1 kg^−1 bw | volume of distribution (Vd) ([3]; estimated from T1/2 and C0): 27.5 L kg^−1 bw
